Data taken from the supplement of paper PMC5752671.
Counter-ions that a name gives are not always drawn.

Tests used:
Assay in all cases: area under dose-response curve (cell viability) (AUC (arbitrary, % viability x log concentration)); higher = less sensitive (more viable)
Conditions in all cases: 4 days
EOL-1 = test system: EOL-1
Summary of the method: (§1)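 Fourteen leukemia cell lines were plated on extracellular-matrix-coated 384-well plates. Drugs were added robotically the next day at eight concentrations spanning 4–5 logs within 10^–12–10^–4 M, tailored per drug, in duplicate. Viability was read with CellTiter-Glo after 4 days. The value is the area under a four-parameter sigmoid fitted to the duplicate-averaged dose-response.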

HL60 = test system: HL60
Summary of the method: as §1

KASUMI1 = test system: KASUMI1
Summary of the method: as §1

KG1 = test system: KG1
Summary of the method: as §1

MOLM/13 = test system: MOLM/13
Summary of the method: as §1

MV4.11 = test system: MV4.11
Summary of the method: as §1

NB4 = test system: NB4
Summary of the method: as §1

OCI-AML2 = test system: OCI-AML2
Summary of the method: as §1

THP-1 = test system: THP-1
Summary of the method: as §1

U937 = test system: U937
Summary of the method: as §1

Structure (SMILES) | area under dose-response curve (EOL-1) | area under dose-response curve (HL60) | area under dose-response curve (KASUMI1) | area under dose-response curve (KG1) | area under dose-response curve (MOLM/13) | area under dose-response curve (MV4.11) | area under dose-response curve (NB4) | area under dose-response curve (OCI-AML2) | area under dose-response curve (THP-1) | area under dose-response curve (U937)
CCCS(=O)(=O)Nc1ccc(F)c(C(=O)c2c[nH]c3ncc(-c4ccc(Cl)cc4)cc23)c1F [PLX-4032] | 677 | 757 | 750 | 710 | 643 | 702 | 618 | 618 | 738 | 692
CCCS(=O)(=O)Nc1ccc(F)c(C(=O)c2c[nH]c3ncc(Cl)cc23)c1F [PLX-4720] | 614 | 769 | 723 | 713 | 660 | 714 | 630 | 608 | 730 | 638
CC(=O)O[C@H]1C(=O)[C@@]2(C)[C@H]([C@H](OC(=O)c3ccccc3)[C@]3(O)C[C@H](OC(=O)[C@H](O)[C@@H](NC(=O)c4ccccc4)c4ccccc4)C(C)=C1C3(C)C)[C@]1(OC(C)=O)CO[C@@H]1C[C@@H]2O [Paclitaxel] | 2.53 | 56.2 | 88 | 154 | 2.2 | 8.21 | 1.43 | 3.76 | 20.5 | 6.61
Cc1[nH]c2ccccc2c1CCNCc1ccc(/C=C/C(=O)NO)cc1 [Panobinostat] | 240 | 307 | 278 | 323 | 283 | 259 | 276 | 251 | 336 | 289
Cc1ccc(Nc2nccc(N(C)c3ccc4c(C)n(C)nc4c3)n2)cc1S(N)(=O)=O [Pazopanib] | 517 | 608 | 623 | 619 | 555 | 559 | 635 | 537 | 645 | 581
Nc1nc2[nH]cc(CCc3ccc(C(=O)N[C@@H](CCC(=O)O)C(=O)O)cc3)c2c(=O)[nH]1 [Pemetrexed] | 674 | 643 | 638 | 657 | 647 | 640 | 664 | 628 | 632 | 628
OC[C@H]1O[C@@H](n2cnc3c2N=CNC[C@H]3O)C[C@@H]1O [Pentostatin] | 671 | 652 | 656 | 669 | 627 | 647 | 666 | 629 | 632 | 651
CC[C@H](C)C(=O)O[C@H]1C[C@H](O)C=C2C=C[C@H](C)[C@H](CC[C@@H](O)C[C@@H](O)CC(=O)O)[C@H]21 [Pravastatin] | 691 | 668 | 660 | 657 | 656 | 699 | 615 | 659 | 693 | 668
CC[C@H](CO)Nc1nc(NCc2ccccc2)c2ncn(C(C)C)c2n1 [R-roscovitine] | 707 | 640 | 652 | 711 | 637 | 697 | 605 | 649 | 668 | 658
COc1cc(F)c(F)c(Nc2ccc(I)cc2F)c1NS(=O)(=O)C1(C[C@H](O)CO)CC1 [RDEA-119] | 464 | 361 | 406 | 486 | 544 | 489 | 443 | 291 | 500 | 560
CO[C@H]1C[C@@H]2CC[C@@H](C)[C@@](O)(O2)C(=O)C(=O)N2CCCC[C@H]2C(=O)O[C@H]([C@H](C)C[C@@H]2CC[C@@H](O)[C@H](OC)C2)CC(=O)[C@H](C)/C=C(\C)[C@@H](O)[C@@H](OC)C(=O)[C@H](C)C[C@H](C)/C=C/C=C/C=C/1C [Rapamycin] | 280 | 544 | 487 | 405 | 439 | 367 | 561 | 483 | 527 | 296
CN1CCC(CNc2ccc3ncc(-c4cccc(OC(F)(F)F)c4)n3n2)CC1 [SGI-1776] | 323 | 686 | 641 | 585 | 349 | 335 | 553 | 557 | 678 | 615
COc1cc(Nc2c(C#N)cnc3cc(OCCCN4CCN(C)CC4)c(OC)cc23)c(Cl)cc1Cl [SKI-606] | 475 | 715 | 713 | 559 | 550 | 545 | 525 | 548 | 672 | 590
CC(C)(C)c1cnc(CSc2cnc(NC(=O)C3CCNCC3)s2)o1 [SNS-032] | 419 | 555 | 560 | 619 | 425 | 444 | 438 | 395 | 527 | 469
CNC(=O)c1cc(Oc2ccc(NC(=O)Nc3ccc(Cl)c(C(F)(F)F)c3)cc2)ccn1 [Sorafenib] | 214 | 707 | 576 | 651 | 311 | 250 | 603 | 603 | 579 | 588
CN[C@@H]1C[C@H]2O[C@@](C)([C@@H]1OC)n1c3ccccc3c3c4c(c5c6ccccc6n2c5c31)C(=O)NC4 [Staurosporine] | 107 | 525 | 472 | 379 | 162 | 121 | 304 | 170 | 425 | 344
CCN(CC)CCNC(=O)c1c(C)[nH]c(/C=C2\C(=O)Nc3ccc(F)cc32)c1C [Sunitinib] | 242 | 707 | 612 | 581 | 299 | 301 | 578 | 577 | 654 | 694

Structure (SMILES) | area under dose-response curve (EOL-1) | area under dose-response curve (HL60) | area under dose-response curve (KASUMI1) | area under dose-response curve (KG1) | area under dose-response curve (MOLM/13) | area under dose-response curve (MV4.11) | area under dose-response curve (NB4) | area under dose-response curve (OCI-AML2) | area under dose-response curve (THP-1) | area under dose-response curve (U937)
Cc1cc(C(C)Nc2ccccc2)c2nc(N3CCOCC3)cc(=O)n2c1 (stereo not given) [TGX-221] | 588 | 726 | 669 | 694 | 675 | 633 | 619 | 624 | 717 | 645
CN1CCN(c2ccc3nc(-c4c(N)c5c(F)cccc5[nH]c4=O)[nH]c3c2)CC1 [TKI258] | 293 | 666 | 602 | 456 | 323 | 313 | 592 | 546 | 634 | 588
NC(=O)Nc1sc(-c2ccc(F)cc2)cc1C(N)=O [TPCA-1] | 492 | 669 | 617 | 547 | 626 | 609 | 643 | 619 | 678 | 598
CC1(C)CCC(C)(C)c2cc(NC(=O)c3ccc(C(=O)O)cc3)ccc21 [Tamibarotene] | 293 | 603 | 646 | 660 | 442 | 328 | 509 | 457 | 562 | 524
CC/C(=C(\c1ccccc1)c1ccc(OCCN(C)C)cc1)c1ccccc1 [Tamoxifen] | 631 | 664 | 631 | 634 | 584 | 629 | 588 | 575 | 667 | 613
COc1cc2c(N3CCN(C(=O)Nc4ccc(OC(C)C)cc4)CC3)ncnc2cc1OCCCN1CCCCC1 [Tandutinib] | 264 | 729 | 646 | 705 | 388 | 319 | 588 | 647 | 690 | 672
C=CCNC1=C2C[C@@H](C)C[C@H](OC)[C@H](O)[C@@H](C)/C=C(\C)[C@H](OC(N)=O)[C@@H](OC)/C=C\C=C(/C)C(=O)NC(=CC1=O)C2=O [Tanespimycin] | 440 | 586 | 554 | 578 | 327 | 280 | 346 | 293 | 535 | 480
Cn1nnc2c(C(N)=O)ncn2c1=O [Temozolomide] | 600 | 671 | 662 | 656 | 624 | 670 | 638 | 597 | 688 | 668
CO[C@H]1C[C@@H]2CC[C@@H](C)[C@@](O)(O2)C(=O)C(=O)N2CCCC[C@H]2C(=O)O[C@H]([C@H](C)C[C@@H]2CC[C@@H](OC(=O)C(C)(CO)CO)[C@H](OC)C2)CC(=O)[C@H](C)/C=C(\C)[C@@H](O)[C@@H](OC)C(=O)[C@H](C)C[C@H](C)/C=C/C=C/C=C/1C [Temsirolimus] | 281 | 592 | 512 | 455 | 445 | 385 | 588 | 477 | 543 | 302
Cn1cncc1[C@@](N)(c1ccc(Cl)cc1)c1ccc2c(c1)c(-c1cccc(Cl)c1)cc(=O)n2C [Tipifarnib] | 255 | 490 | 419 | 374 | 482 | 378 | 215 | 365 | 263 | 313
CC[C@@]1(O)C(=O)OCc2c1cc1n(c2=O)Cc2cc3c(CN(C)C)c(O)ccc3nc2-1 [Topotecan HCl] | 221 | 296 | 289 | 271 | 238 | 231 | 143 | 255 | 308 | 263
CC(C)C[C@@H](C(=O)N[C@H](C(=O)OC1CCCC1)c1ccccc1)[C@H](O)C(=O)NO [Tosedostat] | 545 | 682 | 670 | 541 | 625 | 731 | 538 | 635 | 728 | 462
Cc1cc(Nc2cc(N3CCN(C)CC3)nc(Sc3ccc(NC(=O)C4CC4)cc3)n2)n[nH]1 [Tozasertib] | 64.9 | 505 | 356 | 336 | 79 | 91 | 377 | 298 | 519 | 215
CC1=C(/C=C/C(C)=C/C=C/C(C)=C/C(=O)O)C(C)(C)CCC1 [Tretinoin] | 285 | 506 | 549 | 577 | 449 | 338 | 601 | 440 | 505 | 452
CCCC(CCC)C(=O)O [Valproic acid] | 691 | 703 | 696 | 651 | 690 | 720 | 649 | 684 | 656 | 692
COc1cc2/c(=N/c3ccc(Br)cc3F)nc[nH]c2cc1OCC1CCN(C)CC1 [Vandetanib] | 575 | 675 | 621 | 626 | 619 | 635 | 649 | 627 | 724 | 730
Clc1ccc(Nc2nnc(Cc3ccncc3)c3ccccc23)cc1 [Vatalanib] | 488 | 712 | 590 | 700 | 683 | 666 | 623 | 654 | 722 | 688
